# Measurements reported in patent publication US20200230205A1, “COMPOSITIONS AND METHODS FOR TREATING MYELIN DISORDERS” (CASE WESTERN RESERVE UNIVERSITY, priority 2017, published 2020).
# What was measured:
# OPC secreted proteases = assay: Protease array screen of OPC conditioned media; type: cell-based, mouse; conditions: OPC CM, 2.5 μM ISP for 4 div vs vehicle
# Protocol: OPCs were cultured on 6-well plates for 4 div with vehicle control or 2.5 μM ISP treatment. Conditioned media was collected from each group and cell-strained before incubation with blot array provided in R & D Systems Protease Array Kit (ARY025). Instructions from kit were followed with overnight incubation of collected media at 4° C. Control and ISP blots were developed together with the same exposure time and pixel intensities of array was assess using ImageJ (NIH).
# [1] = test system: MOG35-55-induced EAE mice; assay: MOG35-55-induced EAE mouse model, daily intraperitoneal ISP; type: in vivo
# Description: For induction of EAE, C57BL6/J female mice at 10-week-old of age were immunized with MOG35-55 together with complete Freund's adjuvant emulsion (Hooke Laboratories, MOG35-55 EAE Induction kit, EK-2110) according to the manufacturers' instruction. Using the EAE Induction Kit result in 98% successful disease induction. All EAE animals were monitored daily and scored using a clinical scale from 0 to 5 (0: no abnormality; 1: limp tail; 2: limp tail and hind legs weakness; 3: limp tail and complete paralysis of hind legs; 4, hind leg and partial front leg paralysis; 5: moribund. Once EAE mice scored for I or 3, they were randomly recruited into treatment group and vehicle group. For treatment group, 5-7 mice were given daily intraperitoneal injections of ISP (20 μg/day), or 5% DMSO in saline, 100 μl) for Vehicle group. Experiments were blinded and animals were scored daily. For ISP Onset: ISP treatment was given at onset of sickness scored by clinical scale. For ISP Peak: ISP treatment was given at peak of sickness scored by clinical scale
# LFB staining was performed according to the manufacturer's instruction (#26681, Electron Microscopy Sciences). For spinal cord sections, 20 μm coronal sections were incubated in LFB solution in 56° C. overnight and then rinsed sequentially with 95% alcohol and distilled water. The sections were then in 0.1% lithium carbonate solution and followed dehydration with a series of gradated ethanol, cleared with Histoclear and mounted. A set of serial matched sections were imaged and analyzed. Images (5 to 6 sections/animal) were captured under light microscope. The demyelinated areas (lack of LFB staining) were quantified using ImageJ software. For EAE sections, demyelinated areas were measured and represented as a percentage of total area of spinal cord. For sections of LPC model, lesion volumes were calculated by the lesion area from serial sections throughout the entire lesion based on the equation for volume of cylinder (V=lesion area×length of lesion).
# Mice were anesthetized with avertin and perfusion with PBS and 4% paraformaldehyde (PFA). Brain or spinal cord were dissected and post-fixed in 4% PFA overnight at 4° C. and equilibrated in 20% sucrose. 20 μm-thick sections were pretreated with Reveal Decloaker Solution (RV 1000M, Biocare Medical) for antigen retrieval according to the manufacturer's instructions. After blocking, sections were incubated with primary antibodies overnight at 4° C. and followed by appropriate secondary antibodies conjugated with Alexa fluorescence 488 or 594. The following primary antibodies were used: MBP (SMI-99P, Covance, 1:300), NeuF200 (N4142, Sigma, 1:250), CS-56 (C8035, Sigma, 1:250), CAT301 (MAB5284, Millipore, 1:250), versican (AB 1032, Millipore, 1:250), Iba1 (019-19741, WAKO, 1:250), GFAP (MAB360, Millipore, 1:250), Olig2 (AB9610, Millipore, 1:250), CC1 (OP80, Millipore, 1:250). For each staining, at least 3 individual animals/group were examined and images were captured with a Leica DFC500 fluorescence microscope. Staining was quantified using Image J software (US National Instisutes of Health, USA). Fluorescence intensity was calculated as percentages of the mean value of the naïve controls.
# For ultrastructural analyses of myelination, anesthetized animals were perfused with 2% glutaraldehyde/4% paraformaldehyde in 0.1 M sodium carcodylate buffer, PH7.4 (Electron Microscopy Sciences). Lesioned areas of the LPC or EAE-induced spinal cords from ISP-treated or control animals were dissected and post-fixed in 1% OsO4 for 2 hrs. Coronal sections ([…]) of spinal cord or brain containing corpus callosum were prepared (Leica, Vibratome), dehydrated, stained with saturated uranyl acetate and embedded in a Poly/Bed812 resin (Polysciences Inc.). The 1 μm-thick sections were cut and stained with toluidine blue, and matched areas were selected for EM analysis. […]
# [2] = 41 days following EAE induction
sequence,measurement,setting,value
GRKKRRQRRRCDMAEHMERLKANDSLKLSQEYESI [ISP],"protease array signal for ADAMTS, Kallikreins, Cathepsins, MMPs",OPC secreted proteases,increased signal
same,protease array signal for Cathepsins L and V and MMP-10 (laminin degrading),OPC secreted proteases,reduced
same,demyelination baseline (LFB) vs vehicle,[1]; 18 days following EAE induction,not significantly different
same,GFAP (reactive astrocytes) immunofluorescence,[1]; [2],significant decreases
same,Iba1 (microglia/macrophages) immunofluorescence,[1]; [2],significant decreases
same,time until functional recovery was initially observed,"[1]; EAE ISP Onset group, ISP 20 μg/mouse daily i.p., days of ISP administration",10 to 12 days
same,clinical score,"[1]; EAE ISP Onset group, several animals, after 20-22 days of ISP (~33 days post immunization)",0.5-1
same,clinical score,"[1]; EAE ISP Peak group, ISP started at peak of sickness",improved significantly
same,percentage of CC1+ oligodendrocytes in lesions,"[1]; EAE animals, 41 days",significantly enhanced
same,"number of myelinated/remyelinated axons, electron microscopy",[1]; EAE-lesioned spinal cord vs vehicle,increase of myelinated/remyelinated axons
same,MBP immunostaining,[1]; ISP for 41 days vs control EAE animals,denser
same,"lesion size, LFB myelin staining","[1]; Onset treated animals, spinal cord",especially reduced
same,Arginase-1 (M2 microglia marker) immunostaining,[1]; spinal cord of EAE mice,increased M2 microglia
same,iNOS (M microglia marker) immunostaining,[1]; spinal cord of EAE mice,decreased M microglia
same,"MBP expression, western blot",[1]; spinal cord tissue of EAE mice,restoration of MBP expression
same,"CSPG (Cat301, aggrecan) immunostaining","[1]; thoracic spinal cord, 41 days post-induction",markedly decreased
